According to the supplement of paper PMC5908809:

Assays:
[1] = system: normal NK cells expanded with K562-aAPC; experiment: percent inhibition of viability; higher = more inhibition; conditions: 72 h, IL-2 2.5 ng/mL
Protocol: (§1)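 Drug sensitivity and resistance testing on K562-aAPC-expanded normal NK cells: 5 concentrations (10-fold steps over a 10,000-fold range), 72 h at 37 °C, viability by CellTiter-Glo normalised to DMSO and benzethonium chloride controls; DSS from the fitted curve.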

[2] = system: DERL-7 (IL-2 2.5 ng/mL); experiment: as above; conditions: 72 h
[3] = system: IMC-1 (IL-2 20 ng/mL); experiment: as above; conditions: 72 h
[4] = system: KAI3 (IL-2 2.5 ng/mL); experiment: as above; conditions: 72 h
[5] = system: KHYG-1 (IL-2 2.5 ng/mL); experiment: as above; conditions: 72 h
[6] = system: NK-92 (IL-2 2.5 ng/mL); experiment: as above; conditions: 72 h
[7] = system: NK-YS (IL-2 2.5 ng/mL); experiment: as above; conditions: 72 h
[8] = system: NKL (IL-2 2.5 ng/mL); experiment: as above; conditions: 72 h
[9] = system: SNK-6 (IL-2 2.5 ng/mL); experiment: as above; conditions: 72 h
[10] = system: YT (IL-2 2.5 ng/mL); experiment: as above; conditions: 72 h
[11] = system: normal primary NK cells, pool 1 (3 donors) (IL-2 2.5 ng/mL); experiment: as above; conditions: 72 h
[12] = system: normal primary NK cells, pool 1 (3 donors), resting (IL-2 0 ng/mL); experiment: as above; conditions: 72 h
[13] = system: normal primary NK cells, pool 2 (3 donors) (IL-2 2.5 ng/mL); experiment: as above; conditions: 72 h
[14] = system: normal primary NK cells, pool 3 (3 donors) (IL-2 2.5 ng/mL); experiment: as above; conditions: 72 h
[15] = system: normal NK cells expanded with K562-aAPC; experiment: drug sensitivity score (DSS) (DSS units); higher = more sensitive; extreme values may be limits of the assay; conditions: 72 h; IL-2 2.5 ng/mL
Protocol: as §1

[16] = system: DERL-7 (IL-2 2.5 ng/mL); experiment: as above; conditions: 72 h
[17] = system: IMC-1 (IL-2 20 ng/mL); experiment: as above; conditions: 72 h
[18] = system: KAI3 (IL-2 2.5 ng/mL); experiment: as above; conditions: 72 h
[19] = system: KHYG-1 (IL-2 2.5 ng/mL); experiment: as above; conditions: 72 h
[20] = system: NK-92 (IL-2 2.5 ng/mL); experiment: as above; conditions: 72 h
[21] = system: NK-YS (IL-2 2.5 ng/mL); experiment: as above; conditions: 72 h
[22] = system: NKL (IL-2 2.5 ng/mL); experiment: as above; conditions: 72 h
[23] = system: SNK-6 (IL-2 2.5 ng/mL); experiment: as above; conditions: 72 h
[24] = system: YT (IL-2 2.5 ng/mL); experiment: as above; conditions: 72 h
[25] = system: normal primary NK cells, pool 1 (3 donors) (IL-2 2.5 ng/mL); experiment: as above; conditions: 72 h
[26] = system: normal primary NK cells, pool 1 (3 donors), resting (IL-2 0 ng/mL); experiment: as above; conditions: 72 h
[27] = system: normal primary NK cells, pool 2 (3 donors) (IL-2 2.5 ng/mL); experiment: as above; conditions: 72 h
[28] = system: normal primary NK cells, pool 3 (3 donors) (IL-2 2.5 ng/mL); experiment: as above; conditions: 72 h

O[C@H]1CC[C@H](Nc2ncc3nc(Nc4c(F)cc(F)cc4F)n([C@H]4CCOC4)c3n2)CC1 [Tanzisertib] (max concentration tested 10000 nM)
percent inhibition of viability [%]
Conditions | 1 nM | 10 nM | 100 nM | 1000 nM | 10000 nM
[1] | -0.53 | 1.03 | -5.53 | 1.96 | 16.8
[2] | 2.01 | 0.84 | 5.01 | 1.8 | 18.5
[3] | -1.71 | -1.33 | 2.23 | -2.89 | 5.65
[4] | -8.76 | -8.77 | 4.38 | -3.26 | 2.19
[5] | 0.6 | 1.16 | 7.05 | 3.25 | 12.8
[6] | -1.51 | -5.43 | 11.5 | -0.78 | 4.63
[7] | -2.74 | -2.64 | 8.64 | 8.4 | 27.7
[8] | -12.2 | -7.14 | 8.81 | 20.3 | 40
[9] | -5.24 | -3.37 | -1.51 | -9.49 | -28.9
[10] | 1.29 | 0.43 | 6.25 | 4.44 | 17.9
[11] | -1.02 | -9.12 | -4.55 | -5.56 | 12.8
[12] | -2.07 | -5.9 | 3.76 | -27.5 | -23.7
[13] | -13.6 | -1.21 | 2.95 | -6.75 | 12.9
[14] | -10.2 | -3.98 | 0.77 | -8.69 | 3.78

Conditions | drug sensitivity score
[15] | 0.57
[16] | 0.7
[17] | 0
[18] | 0
[19] | 0
[20] | 0
[21] | 1.7
[22] | 4.27
[23] | 0
[24] | 0.43
[25] | 0.03
[26] | 0
[27] | 0.02
[28] | 0

O=C(Nc1c[nH]nc1-c1nc2ccc(CN3CCOCC3)cc2[nH]1)NC1CC1 [AT9283] (max concentration tested 1000 nM)
percent inhibition of viability [%]
Conditions | 0.1 nM | 1 nM | 10 nM | 100 nM | 1000 nM
[1] | 0.7 | -5.39 | 3.23 | 57.8 | 65.9
[2] | 0.91 | 0.04 | 7.11 | 81.9 | 98.3
[3] | -3.86 | -1.55 | -6.66 | 65.3 | 100
[4] | -1.1 | -5.66 | 8.51 | 45.9 | 76.8
[5] | 0.97 | -2.56 | 0.97 | 83.4 | 96
[6] | 3.17 | 8.69 | 0.17 | 50.1 | 67.7
[7] | -4.25 | -5.41 | -2.2 | 57.1 | 62.4
[8] | -4.9 | -5.16 | -3.64 | 38.5 | 64.4
[9] | 13.2 | 8.33 | 13.9 | 73.1 | 96.5
[10] | 0.76 | -0.55 | 3.44 | 18.3 | 51.5
[11] | -12.6 | -14 | -13.3 | 12.2 | 12.7
[12] | -10.1 | -11 | -42.4 | -105 | -157
[13] | -12.3 | -10.8 | -12.5 | 0.3 | 9.78
[14] | -15.9 | -12.2 | -13.3 | -0.35 | 9.39

Conditions | drug sensitivity score
[15] | 11.1
[16] | 16
[17] | 13.1
[18] | 9.99
[19] | 15.2
[20] | 9.6
[21] | 10.4
[22] | 8.19
[23] | 15.5
[24] | 4.99
[25] | 0.59
[26] | 0
[27] | 0
[28] | 0

Nc1ccn([C@@H]2O[C@H](CO)[C@@H](O)C2(F)F)c(=O)n1 [Gemcitabine] (max concentration tested 1000 nM)
percent inhibition of viability [%]
Conditions | 0.1 nM | 1 nM | 10 nM | 100 nM | 1000 nM
[1] | 1.65 | 34.8 | 55.6 | 74.6 | 88.2
[2] | -4.73 | -12.3 | 44.9 | 99.7 | 99.8
[3] | -7.53 | 2 | 99.1 | 101 | 101
[4] | -18.3 | 3.34 | 79.8 | 98.3 | 101
[5] | 2.22 | 12.5 | 101 | 105 | 105
[6] | -6.25 | 12.2 | 92.2 | 104 | 104
[7] | -3.23 | -1.72 | 87.7 | 97.1 | 101
[8] | -10.6 | 68.9 | 102 | 106 | 104
[9] | 18.4 | 13.8 | 57.7 | 94.6 | 100
[10] | 2.42 | -2.18 | 20.1 | 78.2 | 65
[11] | -2.78 | -14 | 4.7 | -1.17 | 26.4
[12] | -12.2 | -40.4 | -21.2 | -27.6 | 23.4
[13] | -12.2 | -6.97 | 19.6 | 14.7 | 29.7
[14] | -9.85 | -6.72 | 16.8 | 12.6 | 38

Conditions | drug sensitivity score
[15] | 24.5
[16] | 23.7
[17] | 30.6
[18] | 27.6
[19] | 32.6
[20] | 31
[21] | 28.4
[22] | 38.4
[23] | 25.1
[24] | 17.4
[25] | 0.96
[26] | 0.38
[27] | 3.97
[28] | 3.49

Cc1ncc(-c2ccnc(Nc3ccc(S(C)(=O)=O)cc3)n2)n1C(C)C [AZD-5438] (max concentration tested 10000 nM)
percent inhibition of viability [%]
Conditions | 1 nM | 10 nM | 100 nM | 1000 nM | 10000 nM
[1] | 0.15 | -0.53 | -5.24 | 6.05 | 101
[2] | -5.59 | 2.74 | -9.82 | 31.4 | 100
[3] | -2.44 | -0.85 | 6.12 | 39.1 | 101
[4] | -3.46 | -9.8 | -5.74 | 41.5 | 102
[5] | 0.77 | 0.77 | 0.38 | 45.4 | 105
[6] | -5.15 | -8.65 | -22.7 | -0.77 | 104
[7] | -2.69 | -3.59 | 1.96 | 59.8 | 103
[8] | -7.07 | -5.93 | -18.1 | 3.89 | 103
[9] | -9.66 | -5.34 | 6.52 | -1.33 | 58.4
[10] | -1.56 | -0.25 | 0.72 | 24 | 105
[11] | -7.21 | -12.4 | -17.5 | 11.4 | 98
[12] | 4.17 | -8.18 | -42.6 | -99.9 | 91.4
[13] | -12.1 | -8.8 | -8.52 | 15.6 | 96.9
[14] | -7.04 | -10.4 | 1.54 | 18.4 | 99.4

Conditions | drug sensitivity score
[15] | 6.5
[16] | 10
[17] | 10.5
[18] | 11
[19] | 11.3
[20] | 5.86
[21] | 12.6
[22] | 6.34
[23] | 3.04
[24] | 9.28
[25] | 7.3
[26] | 3.02
[27] | 7.94
[28] | 8.5

CCOc1cc2ncc(C#N)c(Nc3ccc(F)c(Cl)c3)c2cc1NC(=O)/C=C/CN(C)C [Pelitinib] (max concentration tested 2500 nM)
percent inhibition of viability [%]
Conditions | 0.25 nM | 2.5 nM | 25 nM | 250 nM | 2500 nM
[1] | -1.17 | 1.75 | 2.79 | 36.6 | 99.5
[2] | -4.83 | -5.06 | 2.43 | 41.3 | 99.9
[3] | -0.29 | 1.94 | 3.33 | -17.4 | 99.7
[4] | -6.96 | -4.92 | 1.78 | 40.4 | 84.1
[5] | 1.04 | 0.45 | 7.11 | 25.7 | 101
[6] | -0.1 | -2.5 | 13 | 13.8 | 98.3
[7] | 0.78 | -5.84 | 0.53 | -1.43 | 73.7
[8] | -12.4 | -7.42 | -0.44 | 15.2 | 92.2
[9] | 29.9 | 30.9 | 23.3 | 32.9 | 95.6
[10] | 4.94 | 2.25 | 8.23 | 7.75 | 51.7
[11] | 3.39 | -4.76 | 4.88 | 39 | 94.2
[12] | 4.48 | -8.29 | 4.76 | 14.7 | 82.3
[13] | -10.8 | 5.08 | 7.69 | 43 | 91.3
[14] | -8.11 | -2.18 | 2.55 | 19.3 | 94.4

Conditions | drug sensitivity score
[15] | 10.3
[16] | 10.7
[17] | 4.58
[18] | 9.6
[19] | 9.44
[20] | 7.76
[21] | 3.95
[22] | 7.63
[23] | 16.3
[24] | 4.06
[25] | 9.9
[26] | 6.98
[27] | 10.1
[28] | 8.33
